The source made the active and inactive calls. No cut-off for these calls is given here. Residues, ends and D or L forms follow the SMILES beside them. *: point of attachment. X2 = C[C@H](N*)C(=O)N(C(=O)c1cn(CCOCCOCCOc2nc(N)c3nc(O)n(Cc4ccccc4)c3n2)nn1)[C@@H](CCCCN)C(N)=O; X1 = Nc1nc(OCCOCCOCCn2cc(C(=O)*)nn2)nc2c1nc(O)n2Cc1ccccc1
Columns and labels:
Assay type in all cases: functional, cell-based
Conditions in all cases: Homo sapiens
[1] = system: Dendritic cell; assay: Induction of IL-12p40 in dendritic cells
[2] = system: Dendritic cell; assay: Induction of antigen presentation in dendritic cells
[3] = system: Dendritic cell; assay: Inhibition of antigen presentation in dendritic cells

Compound | Activity [1] | Activity [2] | Activity [3]
COCCOc1nc(N)c2[nH]c(=O)n(Cc3ccccc3)c2n1 | Active | – | –
[N-]=[N+]=NCCOCCOCCOc1nc(N)c2[nH]c(=O)n(Cc3ccccc3)c2n1 | Active | – | –
CC[C@H](C)[C@H](NC(=O)[C@H](CO)NC(=O)[C@H](CCC(=O)O)NC(=O)[C@H](CC(C)C)NC(=O)[C@H](CCC(N)=O)NC(=O)[C@H](CCC(=O)O)NC(=O)[C@H](CC(C)C)NC(=O)CNC(=O)[C@H](CO)NC(=O)[C@@H](NC(=O)[C@H](CCC(=O)O)NC(=O)[C@@H](N)CC(=O)O)C(C)C)C(=O)N[C@H](C(=O)N[C@@H](CC(N)=O)C(=O)N[C@@H](Cc1ccccc1)C(=O)N[C@@H](CCC(=O)O)C(=O)N[C@@H](CCCCN)C(=O)N[C@@H](CC(C)C)C(=O)N[C@@H](C)C(=O)N[C@@H](C)C(=O)N[C@@H](C)C(=O)N[C@@H](C)C(=O)N[C@@H](C)C(=O)N(C(=O)c1cn(CCOCCOCCOc2nc(N)c3nc(O)n(Cc4ccccc4)c3n2)nn1)[C@@H](CCCCN)C(N)=O)[C@@H](C)CC (H-DEVSGLEQLESIINFEKLAAAA-X2) | – | Active | Active
CC[C@H](C)[C@H](NC(=O)[C@H](CO)NC(=O)[C@H](CCC(=O)O)NC(=O)[C@H](CC(C)C)NC(=O)[C@H](CCC(N)=O)NC(=O)[C@H](CCC(=O)O)NC(=O)[C@H](CC(C)C)NC(=O)CNC(=O)[C@H](CO)NC(=O)[C@@H](NC(=O)[C@H](CCC(=O)O)NC(=O)[C@H](CC(=O)O)NC(=O)c1cn(CCOCCOCCOc2nc(N)c3nc(O)n(Cc4ccccc4)c3n2)nn1)C(C)C)C(=O)N[C@H](C(=O)N[C@@H](CC(N)=O)C(=O)N[C@@H](Cc1ccccc1)C(=O)N[C@@H](CCC(=O)O)C(=O)N[C@@H](CCCCN)C(=O)N[C@@H](CC(C)C)C(=O)O)[C@@H](C)CC (X1-DEVSGLEQLESIINFEKL-OH) | – | Active | Active
CC[C@H](C)[C@H](NC(=O)[C@H](CO)NC(=O)[C@H](CCC(=O)O)NC(=O)[C@H](CC(C)C)NC(=O)[C@H](CCC(N)=O)NC(=O)[C@H](CCC(=O)O)NC(=O)[C@H](CC(C)C)NC(=O)CNC(=O)[C@H](CO)NC(=O)[C@@H](NC(=O)[C@H](CCC(=O)O)NC(=O)[C@H](CC(=O)O)NC(=O)c1cn(CCOCCOCCOc2nc(N)c3nc(O)n(Cc4ccccc4)c3n2)nn1)C(C)C)C(=O)N[C@H](C(=O)N[C@@H](CC(N)=O)C(=O)N[C@@H](Cc1ccccc1)C(=O)N[C@@H](CCC(=O)O)C(=O)N[C@@H](CCCCN)C(=O)N[C@@H](CC(C)C)C(=O)N[C@@H](C)C(=O)N[C@@H](C)C(=O)N[C@@H](C)C(=O)N[C@@H](C)C(=O)N[C@@H](C)C(=O)N[C@@H](CCCCN)C(N)=O)[C@@H](C)CC (X1-DEVSGLEQLESIINFEKLAAAAAK-NH2) | – | Active | Active

From ChEMBL document CHEMBL1147819, “Synthesis of 2-alkoxy-8-hydroxyadenylpeptides: towards synthetic epitope-based vaccines” (Bioorg Med Chem Lett, 2006)
